Paper PMC8442276, “Inter-laboratory comparison of water solubility methods applied to difficult-to-test substances” (BMC Chemistry, 2021)
Converted amounts (≈) assume the structure as drawn. Read-outs that look alike come from different tables or passages of the source. Marks after values point to notes of the source that are not given here.

Legend:
[1] = Water solubility by column elution (generator column) method, OECD 105; assay type: physicochemical
Source text: The column elution method as applied in this ring test is described in several regulatory test guidelines. The typical generator column consists of two concentric glass columns. The inner, narrow column is packed with test substance. The solid test substance is typically dissolved in a volatile solvent which is then pre-loaded onto an inert support phase (e.g. glass beads, diatomaceous earth, chromatographic support material) by rotary evaporation to coat the support phase and then remove the solvent. Alternatively, some practitioners load the column directly with ca. 0.5 g of neat test substance which is retained with plugs of fused silica wool. The outer column provides temperature control (20 °C) as it is connected to a recirculating water bath. Reagent grade water is pumped through the inner column contacting the test substance column at a low flow rate (i.e. < 1 mL/min). The water eluate is collected, extracted and analyzed. Consecutive fractions are collected until the concentration of test substance in water plateaus indicating equilibrium water solubility has been reached. The experiment is then repeated at a flow rate approximately one-half that applied in the first trial to confirm that equilibrium has been reached. In this ring test, two of the five participating labs applied dodecahydrotriphenylene dissolved in solvent to an inert support phase. The solvent was evaporated and the support phase coated with the test compounds. The remaining three laboratories packed the columns with neat test substance. Across the five laboratories, the column flow for the first run ranged from 0.4 to 0.8 mL/min. The volume of each fraction collected for analysis ranged from 5 to 25 mL. Details of the experimental parameters used by each of the participating labs in applying the generator column method are listed in Additional file 1: Table S1.

[2] = Water solubility by slow-stir method; assay type: physicochemical; conditions: for solubility: reagent grade water in sealed all-glass aspirator bottles
Method: The slow-stir water solubility method uses glass vessels, at least one liter in volume, to which reagent grade water is added. The typical bottle contains a sampling port or spigot at the bottom of the vessel and is filled to a water column height approximating that of the vessel’s tapered shoulders. Slow stir systems are depicted in Additional file 1: Figure S1. This configuration minimizes headspace but maximizes the test substance—water interface. […] The top opening of the vessels is tightly sealed to minimize volatile loss of neat test substance from the system. The excess test substance provides a supply of free product to dissolve and, in the case of volatile substances, evaporate into the headspace. The system is mixed with a minimal vortex imparting just enough energy to move the small dollop of test substance and impart a slight dimple (< 0.5 cm) below the water surface. Care is taken to mix slowly so as to avoid emulsifying the test substance. Water samples are withdrawn from the bottom sampling port of the vessel, extracted and analyzed. As necessary, specific sampling techniques for dissolved volatile organics are used including: the use of gas tight syringes, minimizing sample transfer, and reduced storage duration prior to analysis. Sampling from slow-stir systems occurs over daily or weekly intervals until analysis indicates equilibrium has been reached representing maximum water solubility. Larger test (i.e. 8–20 L) vessels are generally used when the associated analytical method requires extraction of large water sample volumes and also provide a greater surface-to-volume ratio which can be advantageous, especially for surface active compounds. For substances where the solubility is extremely low (i.e. < 10 µg/L) lengthy equilibration periods (weeks-months) may be needed.
The slow-stir water solubility method is not currently cited in existing regulatory guidelines though a number of publications describe its application to difficult-to-test liquid compounds [11–14]. In this ring test, each laboratory employed all glass aspirator bottles with sampling spigots located toward the bottom of the vessels. Water volumes ranged from 0.8 to 4 L with initial vessel headspace accounting for 5 to 20% of the entire vessel volume. n-Hexylcyclohexane loadings ranged from 0.4 to 400 mg/L. The vessels were sealed with Teflon™, polypropylene, glass or high density polyethylene screw plugs or stoppers. Water was stirred at a rate imparting little to no visible vortex and stirring rates were estimated between 80 and 250 rpm. The specific experimental parameters used by each of the participating labs in applying the slow-stir method are listed in Additional file 1: Table S2.

Mean Measured Concentration (water solubility) ([1]; Laboratory A, column packed directly with neat solid)	Mean Measured Concentration (water solubility) ([1]; Laboratory B, test substance on support)	Mean Measured Concentration (water solubility) ([1]; Laboratory C, test substance on support)	Mean Measured Concentration (water solubility) ([1]; Laboratory D, column packed directly with neat solid)	Mean Measured Concentration (water solubility) ([1]; Laboratory E, column packed directly with neat solid, statistical outlier, not included in mean)	Mean measured water solubility, inter-laboratory mean ([1]; column elution, 20 °C, mean of n = 4 labs (Lab E excluded as outlier))	Range of measured water solubility values across labs ([1]; column elution, 20 °C, n = 4 labs)	Mean measured water solubility, inter-laboratory mean ([2]; 20 °C, mean of n = 5 labs)	solubility ([2]; 20 °C, mean of n = 5 labs, read-out: Mean measured water solubility, inter-laboratory mean)	solubility ([2]; 20 °C, n = 5 labs, read-out: Range of measured water solubility values across labs)	solubility ([2]; 20 °C, water, thermodynamic from solid, Laboratory B, second attempt, read-out: Mean measured Concentration (water solubility))	solubility ([2]; 20 °C, water, thermodynamic from solid, Laboratory E, second attempt, read-out: Mean measured Concentration (water solubility))	solubility ([2]; water, thermodynamic from solid, Laboratory A, read-out: Mean measured Concentration (water solubility))	solubility ([2]; water, thermodynamic from solid, Laboratory B, first attempt, equilibrium not demonstrated, not included in mean, read-out: Mean measured Concentration (water solubility), first attempt)	solubility ([2]; water, thermodynamic from solid, Laboratory C, read-out: Mean measured Concentration (water solubility))	solubility ([2]; water, thermodynamic from solid, Laboratory D, read-out: Mean measured Concentration (water solubility))	solubility ([2]; water, thermodynamic from solid, Laboratory E, first attempt, equilibrium not demonstrated, not included in mean, read-out: Mean measured Concentration (water solubility), first attempt)	Compound
2.8^p µg/L	3.2 µg/L	2.1 µg/L	2.3^p µg/L	0.66 µg/L	0.0026 µg/mL	0.0021 to 0.0032 µg/mL	–	–	–	–	–	–	–	–	–	–	C1CCc2c(c3c(c4c2CCCC4)CCCC3)C1 [Dodecahydrotriphenylene]
–	–	–	–	–	–	–	0.014 µg/mL	0.014 µg/mL (≈ 0.0832 µM)	0.011 to 0.016 µg/mL (≈ 0.0654 to 0.0951 µM)	0.012 µg/mL (≈ 0.0713 µM)	0.016 µg/mL (≈ 0.0951 µM)	0.015 µg/mL (≈ 0.0891 µM)	0.0056 µg/mL (≈ 0.0333 µM)	0.014 µg/mL (≈ 0.0832 µM)	0.011 µg/mL (≈ 0.0654 µM)	0.0057 µg/mL (≈ 0.0339 µM)	CCCCCCC1CCCCC1 [n-Hexylcyclohexane]
